From patent US9969742B2, “Imidazotriazinone compounds” (Ironwood Pharmaceuticals, Inc., priority 2012, dated 2018)
Where two headings read alike, the source gives them in different places.

How the values were obtained:
Assay type in all cases: biochemical
PDE1A = biological target: T1, PDE1A (Homo sapiens, UniProt P54750); test: Phosphodiesterase enzyme screening assay, PDE1A
T1 construct: purchased Reaction Biology Corporation, Malvern, Pa
Outline: (§1)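 Human PDE isoforms were incubated 1 h at room temperature with 4.0 μM fluorescent cGMP substrate in 100 mM HEPES pH 7.5, 5 mM MgCl2, 1 mM DTT, 0.003% Brij. EDTA stop buffer ended reactions, and substrate and 5′-GMP product were separated by microfluidic electrophoretic mobility shift with laser-induced fluorescence. Inhibition was calculated against control wells.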

PDE1B = biological target: T2, PDE1B (Homo sapiens, UniProt Q01064); test: Phosphodiesterase enzyme screening assay, PDE1B
T2 construct: purchased Reaction Biology Corporation, Malvern, Pa
T2 sequence (Q01064 whole entry): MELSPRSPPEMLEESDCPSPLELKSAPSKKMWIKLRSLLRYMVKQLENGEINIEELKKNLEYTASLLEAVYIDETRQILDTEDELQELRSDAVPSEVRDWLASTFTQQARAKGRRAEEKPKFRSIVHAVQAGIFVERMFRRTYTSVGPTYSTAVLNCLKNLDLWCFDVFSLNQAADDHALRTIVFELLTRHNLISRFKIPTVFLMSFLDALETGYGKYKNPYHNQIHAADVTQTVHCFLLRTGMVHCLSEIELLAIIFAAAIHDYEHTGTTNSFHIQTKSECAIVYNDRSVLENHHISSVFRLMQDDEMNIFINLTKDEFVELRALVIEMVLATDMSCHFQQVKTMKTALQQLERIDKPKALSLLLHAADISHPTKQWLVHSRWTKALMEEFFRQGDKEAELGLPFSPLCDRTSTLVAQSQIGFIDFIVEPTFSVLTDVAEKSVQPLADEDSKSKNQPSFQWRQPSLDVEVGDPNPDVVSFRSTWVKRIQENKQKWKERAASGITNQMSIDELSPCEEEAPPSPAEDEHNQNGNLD
Outline: as §1

PDE9A2 = biological target: T3, PDE9A2 (Homo sapiens, UniProt O76083); test: Phosphodiesterase enzyme screening assay, PDE9A2; settings: read-out: Band (PDE9A2 IC50)
T3 construct: purchased Reaction Biology Corporation, Malvern, Pa
T3 sequence (O76083 1-533 isoform O76083-2): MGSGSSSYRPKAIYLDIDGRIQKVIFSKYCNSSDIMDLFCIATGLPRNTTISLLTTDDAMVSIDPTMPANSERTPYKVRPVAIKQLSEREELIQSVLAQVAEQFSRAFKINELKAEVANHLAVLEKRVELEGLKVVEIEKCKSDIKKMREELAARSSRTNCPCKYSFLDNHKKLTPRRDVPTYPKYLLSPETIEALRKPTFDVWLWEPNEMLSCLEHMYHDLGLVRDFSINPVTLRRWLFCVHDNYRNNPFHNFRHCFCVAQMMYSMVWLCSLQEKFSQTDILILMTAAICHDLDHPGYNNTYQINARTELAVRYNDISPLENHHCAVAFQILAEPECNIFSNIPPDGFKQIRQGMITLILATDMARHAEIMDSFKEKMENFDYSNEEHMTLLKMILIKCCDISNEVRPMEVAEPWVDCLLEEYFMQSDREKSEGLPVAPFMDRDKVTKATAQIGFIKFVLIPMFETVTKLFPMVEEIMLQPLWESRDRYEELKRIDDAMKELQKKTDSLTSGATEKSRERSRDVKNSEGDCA
Outline: as §1

[1] = Table 1, ratio of IC50 values, value greater than 1 indicates greater selectivity for PDE9A2
[2] = Table 1, 10 concentrations, 4.0 μM cGMP substrate, 1 hour at R.T.
[3] = ratio of IC50 values, PDE1A versus PDE9A2, value greater than 1 = greater selectivity for PDE9A2
[4] = ratio of IC50 values, PDE1B versus PDE9A2, value greater than 1 = greater selectivity for PDE9A2
[5] = Table 3, 4.0 μM cGMP substrate, 1 hour at R.T.
[6] = ratio of IC50 values, value greater than 1 indicates greater selectivity for PDE9A2
[7] = ratio of IC50 values PDE1A / PDE9A2, value greater than 1 = greater selectivity for PDE9A2
[8] = ratio of IC50 values PDE1B / PDE9A2, value greater than 1 = greater selectivity for PDE9A2
[9] = 4.0 μM cGMP substrate, 1 hour at R.T.
[10] = Table 2, ratio of IC50 values, value greater than 1 indicates greater selectivity for PDE9A2

T1 sequence (P54750 whole entry): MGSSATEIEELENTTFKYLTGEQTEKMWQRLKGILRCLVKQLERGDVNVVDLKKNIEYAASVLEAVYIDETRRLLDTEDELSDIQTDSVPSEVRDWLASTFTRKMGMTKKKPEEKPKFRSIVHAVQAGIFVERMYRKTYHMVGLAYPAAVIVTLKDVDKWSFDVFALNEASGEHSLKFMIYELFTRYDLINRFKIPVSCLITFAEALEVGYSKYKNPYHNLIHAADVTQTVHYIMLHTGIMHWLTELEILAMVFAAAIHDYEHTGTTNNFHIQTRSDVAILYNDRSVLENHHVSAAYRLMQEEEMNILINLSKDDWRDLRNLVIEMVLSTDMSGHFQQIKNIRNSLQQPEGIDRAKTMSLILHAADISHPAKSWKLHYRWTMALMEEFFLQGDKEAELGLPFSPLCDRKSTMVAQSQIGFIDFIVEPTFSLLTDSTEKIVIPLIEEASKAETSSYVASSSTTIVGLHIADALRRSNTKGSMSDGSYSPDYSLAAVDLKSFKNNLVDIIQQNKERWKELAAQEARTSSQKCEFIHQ

| SMILES | PDE1A selectivity (versus PDE9A2) (PDE1A; [1]) | PDE1B selectivity (versus PDE9A2) (PDE1B; [1]) | IC50 (PDE9A2; [2]) [µM] | other results |
| --- | --- | --- | --- | --- |
| Cc1ccccc1-c1ncc2c(=O)[nH]c(C3CN(Cc4ncccn4)CC3C)nn12 (single isomer, unassigned; (+)) [(+)-2-((3,4-trans)-4-methyl-1-(pyrimidin-2-ylmethyl)pyrrolidin-3-yl)-7-(o-tolyl)imidazo[5,1-f][1,2,4]triazin-4(3H)-one] | 84 | 119 | < 1 | – |
| CC1CN(Cc2ccncn2)CC1c1nn2c(C3CCOCC3)ncc2c(=O)[nH]1 (single isomer, unassigned; (+)) [(+)-2-((3,4-trans)-4-methyl-1-(pyrimidin-4-ylmethyl)pyrrolidin-3-yl)-7-(tetrahydro-2H-pyran-4-yl)imidazo[5,1-f][1,2,4]triazin-4(3H)-one] | 136 | 174 | < 1 | – |
| CC1CN(Cc2ccc3ncncc3c2)CC1c1nn2c(C3CCOCC3)ncc2c(=O)[nH]1 (single isomer, unassigned; (+)) [(+)-2-((3,4-trans)-4-methyl-1-(quinazolin-6-ylmethyl)pyrrolidin-3-yl)-7-(tetrahydro-2H-pyran-4-yl)imidazo[5,1-f][1,2,4]triazin-4(3H)-one] | 890 | 1067 | < 1 | – |
| CC1CN(Cc2ccnc3ccccc23)CC1c1nn2c(C3CCOCC3)ncc2c(=O)[nH]1 (single isomer, unassigned; (+)) [(+)-2-((3,4-trans)-4-methyl-1-(quinolin-4-ylmethyl)pyrrolidin-3-yl)-7-(tetrahydro-2H-pyran-4-yl)imidazo[5,1-f][1,2,4]triazin-4(3H)-one] | 471 | 987 | < 1 | – |
| CC1CN(Cc2ccc3ncccc3c2)CC1c1nn2c(C3CCOCC3)ncc2c(=O)[nH]1 (single isomer, unassigned; (+)) [(+)-2-((3,4-trans)-4-methyl-1-(quinolin-6-ylmethyl)pyrrolidin-3-yl)-7-(tetrahydro-2H-pyran-4-yl)imidazo[5,1-f][1,2,4]triazin-4(3H)-one] | 520 | 1525 | < 1 | – |
| CC1CN(Cc2cccc3cccnc23)CC1c1nn2c(C3CCOCC3)ncc2c(=O)[nH]1 (single isomer, unassigned; (+)) [(+)-2-((3,4-trans)-4-methyl-1-(quinolin-8-ylmethyl)pyrrolidin-3-yl)-7-(tetrahydro-2H-pyran-4-yl)imidazo[5,1-f][1,2,4]triazin-4(3H)-one] | – | – | – | PDE1A selectivity (versus PDE9A2) (PDE1A; [3]): 647; PDE1B selectivity (versus PDE9A2) (PDE1B; [4]): 673; IC50 (PDE9A2; [5]): < 1 µM |
| CC1CN(Cc2cnc3ccccc3n2)CC1c1nn2c(C3CCOCC3)ncc2c(=O)[nH]1 (single isomer, unassigned; (+)) [(+)-2-((3,4-trans)-4-methyl-1-(quinoxalin-2-ylmethyl)pyrrolidin-3-yl)-7-(tetrahydro-2H-pyran-4-yl)imidazo[5,1-f][1,2,4]triazin-4(3H)-one] | 453 | 1130 | < 1 | – |
| CC1CN(Cc2nccs2)CC1c1nn2c(C3CCOCC3)ncc2c(=O)[nH]1 (single isomer, unassigned; (+)) [(+)-2-((3,4-trans)-4-methyl-1-(thiazol-2-ylmethyl)pyrrolidin-3-yl)-7-(tetrahydro-2H-pyran-4-yl)imidazo[5,1-f][1,2,4]triazin-4(3H)-one] | – | – | – | PDE1A selectivity (versus PDE9A2) (PDE1A; [6]): 150; PDE1B selectivity (versus PDE9A2) (PDE1B; [6]): 147; IC50 (PDE9A2): < 1 µM |
| CC1CN(Cc2cccs2)CC1c1nn2c(C3CCOCC3)ncc2c(=O)[nH]1 (single isomer, unassigned; (+)) [(+)-2-((3,4-trans)-4-methyl-1-(thiophen-2-ylmethyl)pyrrolidin-3-yl)-7-(tetrahydro-2H-pyran-4-yl)imidazo[5,1-f][1,2,4]triazin-4(3H)-one] | – | – | – | PDE1A selectivity (versus PDE9A2) (PDE1A; [7]): 91; PDE1B selectivity (versus PDE9A2) (PDE1B; [8]): 140; IC50 (PDE9A2; [9]): < 1 µM |
| CC1CN(Cc2ccsc2)CC1c1nn2c(C3CCOCC3)ncc2c(=O)[nH]1 (single isomer, unassigned; (+)) [(+)-2-((3,4-trans)-4-methyl-1-(thiophen-3-ylmethyl)pyrrolidin-3-yl)-7-(tetrahydro-2H-pyran-4-yl)imidazo[5,1-f][1,2,4]triazin-4(3H)-one] | – | – | – | PDE1A selectivity (versus PDE9A2) (PDE1A; [3]): 176; PDE1B selectivity (versus PDE9A2) (PDE1B; [4]): 209; IC50 (PDE9A2; [5]): < 1 µM |
| CC1CN(CCc2ccccc2)CC1c1nn2c(C3CCOCC3)ncc2c(=O)[nH]1 (single isomer, unassigned; (+)) [(+)-2-((3,4-trans)-4-methyl-1-phenethylpyrrolidin-3-yl)-7-(tetrahydro-2H-pyran-4-yl)imidazo[5,1-f][1,2,4]triazin-4(3H)-one] | 28 | 23 | < 1 | – |
| CC1CN(Cc2ccccc2C#N)CC1c1nn2c(C3CCOCC3)ncc2c(=O)[nH]1 (single isomer, unassigned; (+)) [(+)-2-(((3,4-trans)-3-methyl-4-(4-oxo-7-(tetrahydro-2H-pyran-4-yl)-3,4-dihydroimidazo[5,1-f][1,2,4]triazin-2-yl)pyrrolidin-1-yl)methyl)benzonitrile] | 241 | 220 | < 1 | – |
| CC1CN(Cc2ncc(C#N)cn2)CC1c1nn2c(C3CCOCC3)ncc2c(=O)[nH]1 (single isomer, unassigned; (+)) [(+)-2-(((3,4-trans)-3-methyl-4-(4-oxo-7-(tetrahydro-2H-pyran-4-yl)-3,4-dihydroimidazo[5,1-f][1,2,4]triazin-2-yl)pyrrolidin-1-yl)methyl)pyrimidine-5-carbonitrile] | – | – | – | PDE1A selectivity (versus PDE9A2) (PDE1A; [10]): 22; PDE1B selectivity (versus PDE9A2) (PDE1B; [10]): 65; IC50 (PDE9A2; Table 2, 10 concentrations, 4.0 μM cGMP substrate, 1 hour at R.T.): < 1 µM |
| CC1CN(Cc2ccc(F)c(C#N)c2)CC1c1nn2c(C3CCOCC3)ncc2c(=O)[nH]1 (single isomer, unassigned; (+)) [(+)-2-fluoro-5-(((3,4-trans)-3-methyl-4-(4-oxo-7-(tetrahydro-2H-pyran-4-yl)-3,4-dihydroimidazo[5,1-f][1,2,4]triazin-2-yl)pyrrolidin-1-yl)methyl)benzonitrile] | – | – | – | PDE1A selectivity (versus PDE9A2) (PDE1A; [7]): 61; PDE1B selectivity (versus PDE9A2) (PDE1B; [8]): 58; IC50 (PDE9A2; [9]): < 1 µM |
| CC1CN(Cc2cccc(C#N)c2)CC1c1nn2c(C3CCOCC3)ncc2c(=O)[nH]1 (single isomer, unassigned; (+)) [(+)-3-(((3,4-trans)-3-methyl-4-(4-oxo-7-(tetrahydro-2H-pyran-4-yl)-3,4-dihydroimidazo[5,1-f][1,2,4]triazin-2-yl)pyrrolidin-1-yl)methyl)benzonitrile] | 942 | 343 | < 1 | – |
